Legend:
[1] = system: HCT-15 colon carcinoma xenografts; test: xenograft growth, HCT-15; type: in vivo, mice
HCT116 = test: xenograft growth, HCT116; type: in vivo, mice
[2] = system: DoHH-2 B-cell lymphoma xenografts; test: xenograft growth, DoHH-2; type: in vivo, mice
[3] = system: SW620 colon carcinoma cells; test: selection of SW620 cells in 1 μM AZD1152 HQPA; type: cell-based, human; details: after 5 passages
Procedure: All cells were maintained at 37° C. in 5% CO2. […] Less than 0.01% of cells survived this treatment after 5 passages (data not shown). […] In the drug-resistant SW620 derivative (hereafter referred to as SW620^ABCB1/3), ABCB1, which encodes MDR1, was the most highly overexpressed gene on the array, and was identified by two distinct probe sets (FIG. 1A, inset). […] Among the gene set that encodes known small molecule transporters, ABCB1 and ABCB4 are the only two that show highly differential expression (FIG. 1A). The apparent co-upregulation of ABCB1 and ABCB4 was curious given that these genes lie juxtaposed within a common genomic locus on the long arm of chromosome 7 (7q21.1).

SW620 cells = test: histone H3 phosphorylation immunoblot, SW620; type: cell-based, human
Procedure: (§1) SW620 and SW620^ABCB1/3 cells were washed and allowed to grow in drug-free medium overnight. […] The lysates were then probe-sonicated for 10 seconds then clarified by centrifugation at 15,000 g for 15 minutes at 4° C. After treatment with SDS-sample buffer, protein extracts were resolved on NuPAGE Bis-Tris 4-12% gels (Invitrogen (Carlsbad, Calif.)). Samples were electrotransferred to PVDF membranes (Invitrogen (Carlsbad, Calif.)), incubated with primary antibody overnight, and developed using Pierce Dura-Signal chemiluminescence reagents (Pierce, Rockford, Ill.), or Odyssey infrared imaging system from LI-COR Biosciences (Lincoln, Nebr.).

SW620^ABCB1/3 cells [4] = test: histone H3 phosphorylation immunoblot, SW620^ABCB1/3; type: cell-based, human
Procedure: as §1

SW620^ABCB1/3 cells [5] = test: intracellular drug concentration by LC-MS; type: in vitro ADME, human; details: 1 μM for 4 hours
Procedure: SW620 and SW620^ABCB1/3 cells were washed and allowed to grow in drug-free medium overnight. […] Cytosolic drug accumulation was determined by LC-MS analysis. Briefly, cells were rinsed once with PBS and extracted in cell lysis buffer. The medium, PBS wash, and cell lysate were treated with 2 volumes of acidified MeOH. Crude whole-cell lysates were then clarified by centrifugation at 15000 g for 15 minutes at 4° C. yielding an insoluble cell pellet and cytosol. The insoluble cell pellet was diluted 1:10 with 50% acetonitrile and centrifuged at 11,000 g for 5 minutes.

SW620 tumors = test: intratumor pharmacokinetics, SW620 xenografts; type: in vivo, mice; details: single i.p. 100 mg kg^−1
Procedure: (§2) C.B.-17 scid-bg (scid-bg) or C.B.-17 scid (scid) mice were obtained from Charles River Laboratories (Wilmington, Mass., USA) at 5-6 weeks of age and used for studies when greater than 8 weeks of age and/or about 20 grams in size. All animal studies were conducted in a specific pathogen-free environment in accordance with the Internal Institutional Animal Care and Use Committee (IACUC), accredited by the American Association of Laboratory Animal Care under conditions that meet or exceed the standards set by the United States Department of Agriculture Animal Welfare Act, Public Health Service policy on humane care and use of animals and the NIH guide on laboratory animal welfare. Overt signs of dehydration, lack of grooming, lethargy, greater than 15% weight loss as well as tumor volume greater then 20% body weight were used to determine tumor end point. SW620 cell lines were obtained from the ATCC (Manassas, Va.) and cultured according to their recommendations without antibiotics and routinely tested for Mycoplasma and confirmed to be microbe-free by infectious microbe PCR amplification test (IMPACT; Missouri Research Animal Diagnostic Laboratory, Columbia, Mo.) prior to in vivo inoculation. […] Two bisecting diameters were measured with calipers and tumor volumes were estimated from the formula: (length×width^2)/2. […]

SW620^ABCB1/3 tumors = test: intratumor pharmacokinetics, SW620^ABCB1/3 xenografts; type: in vivo, mice
Procedure: as §2

SW620 xenografts = test: tumor histone H3 phosphorylation, SW620 xenografts; type: in vivo, mice
Procedure: as §1, with “Nebr.). C.B.-17 scid-bg (scid-bg) or C.B.-17 scid (scid) mice were obtained from Charles River Laboratories (Wilmington, Mass., USA) at 5-6 weeks of age and used for studies when greater than 8 weeks of age and/or about 20 grams in size. […] Two bisecting diameters were measured with calipers and tumor volumes were estimated from the formula: (length×width^2)/2. […]” for “Nebr.).”

SW620^ABCB1/3 xenografts = test: tumor histone H3 phosphorylation, SW620^ABCB1/3 xenografts; type: in vivo, mice
Procedure: as §1, with “Nebr.). C.B.-17 scid-bg (scid-bg) or C.B.-17 scid (scid) mice were obtained from Charles River Laboratories (Wilmington, Mass., USA) at 5-6 weeks of age and used for studies when greater than 8 weeks of age and/or about 20 grams in size. […] Two bisecting diameters were measured with calipers and tumor volumes were estimated from the formula: (length×width^2)/2. […]” for “Nebr.).”

cell line panel = test: 7-day colony formation or viability, cell line panel; type: cell-based, human
Procedure: (§3) SW620^ABCB1/3 and the respective parental cell lines were washed and 500 cells/well were seeded into six-well plates in drug-free medium. Then, 24 hours later, compounds were diluted in DMEM or RPMI, added to the cells, which were cultured at 37° C. for 7-10 days. Cells were then fixed and stained with 0.2% crystal violet to visualize and count colonies.

SW620^ABCB1/3 = test: colony formation, SW620^ABCB1/3; type: cell-based, human
Procedure: as §3

HCT-15 = test: colony formation, HCT-15; type: cell-based, human
[6] = system: panel of 50 other kinases; details: cited from earlier work
[7] = human plasma; cited from earlier work
bone marrow = details: cited from earlier work
AsPC1 = test: colony formation, AsPC1; type: cell-based, human

Question: For `Cc1cc(Nc2cc(N3CCN(C)CC3)nc(Sc3ccc(NC(=O)C4CC4)cc3)n2)[nH]n1` [VX-680, cyclopropane carboxylic acid {4-[4-(4-methyl-piperazin-1-yl)-6-(5-methyl-2H-pyrazol-3-ylamino)-pyrimidin-2-ylsulphanyl]-phenyl}-amide], which “xenograft growth under treatment” value [1] is on record?
Answer: unabated

Question: And the tumor growth inhibition (HCT116)?
Answer: significant tumor growth inhibition

Question: What about the tumor growth inhibition [2] of the same molecule?
Answer: significant tumor growth inhibition

Question: With `CCN(CCO)CCCOc1ccc2c(Nc3cc(CC(=O)Nc4cccc(F)c4)[nH]n3)ncnc2c1` [AZD1152 HQPA] as the molecule, how does the “cells that survived treatment” value [3] read?
Answer: Less than 0.01%

Question: And the “intrinsic potency (histone H3 phosphorylation)” value (SW620 cells)?
Answer: 20 nM

Question: What about the “intrinsic potency (histone H3 phosphorylation)” value (SW620^ABCB1/3 cells [4]; SW620^ABCB1/3) of the same molecule?
Answer: 2000 nM

Question: What about the “more drug required to inhibit histone H3 phosphorylation than the parental line” value (SW620^ABCB1/3 cells [4]; SW620^ABCB1/3 vs parental SW620, 90 minutes) of the same molecule?
Answer: approximately 100 fold

Question: What about the “drug in the cytosol compared to parental SW620 cells” value (SW620^ABCB1/3 cells [5]) of the same molecule?
Answer: Significantly less drug

Question: And the “period of tumor concentration above threshold” value (SW620 tumors)?
Answer: at least 24 hours

Question: And the “period of tumor concentration above threshold” value (SW620^ABCB1/3 tumors; SW620^ABCB1/3 tumors, single i.p. 100 mg kg^−1)?
Answer: ~6 h

Question: And the “overall tumor AUC compared to the parental cohort” value (SW620^ABCB1/3 tumors; single IP administration, 24-hour period post-dose)?
Answer: reduction in the overall tumor AUC

Question: And the “minimum threshold intratumor concentration to inhibit histone H3 phosphorylation” value (SW620 xenografts; SW620 xenografts, potency x fold loss in 50% (v/v) mouse plasma)?
Answer: 0.1 µM

Question: And the “inhibition of Aurora B (histone H3 phosphorylation) in tumors” value (SW620 xenografts; parental SW620 xenografts, single dose 100 mg kg^−1 i.p.)?
Answer: Sustained inhibition

Question: What about the “inhibition of histone H3 phosphorylation in tumors” value (SW620^ABCB1/3 xenografts; SW620^ABCB1/3 tumors, single dose 100 mg kg^−1 i.p.) of the same molecule?
Answer: transient inhibition

Question: What about the “minimum threshold intratumor concentration to inhibit histone H3 phosphorylation” value (SW620^ABCB1/3 xenografts; SW620^ABCB1/3 xenografts, potency x fold loss in 50% (v/v) mouse plasma) of the same molecule?
Answer: 10 µM

Question: And the IC50 (cell line panel; Homo sapiens, most (sensitive) cell lines of the panel)?
Answer: 4 to 15 nM

Question: And the IC50 (SW620^ABCB1/3; Homo sapiens)?
Answer: 2000 nM

Question: What about the IC50 (HCT-15; Homo sapiens) of the same molecule?
Answer: 1400 nM

Question: What about the “activity against a panel of 50 other kinases” value [6] of the same molecule?
Answer: inactive

Question: With `CCN(CCCOc1ccc2c(Nc3cc(CC(=O)Nc4cccc(F)c4)n[nH]3)ncnc2c1)CCOP(=O)(O)O` [AZD1152, 2-[[3-({4-[(5-{2-[(3-Fluorophenyl)amino]-2-oxoethyl}-1H-pyrazol-3-yl)amino]-quinazolin-7-yl}oxy)propyl](ethyl)amino)ethyl dihydrogen phosphate] as the molecule, how does the “conversion of prodrug to active drug” value [7] read?
Answer: rapidly converted to the active drug

Question: And the reversibility of myelosuppression (bone marrow; following cessation of AZD1152 treatment)?
Answer: fully reversible

Question: And the myelosuppression (bone marrow; secondary to inhibition of proliferation of the bone marrow)?
Answer: transient myelosuppression

Question: With `O=C(O)c1ccc(Nc2ncc3c(n2)-c2ccc(Cl)cc2C(c2c(F)cccc2F)=NC3)cc1` [MLN8054, 4-{[9-choloro-7-(2,6-difluorophenyl)-5H-pyrimido[5,4-D][2]benzazepin-2-yl]amino}-benzoic acid] as the molecule, how does the “activity profile in the cell line panel” value (cell line panel; sensitive vs ABCB1-overexpressing lines) read?
Answer: No apparent loss in potency

Question: With `C/C=C/C[C@@H](C)C(=O)[C@H]1C(=O)N[C@@H](C(C)C)C(=O)N(C)CC(=O)N(C)[C@@H](CC(C)C)C(=O)N[C@@H](C(C)C)C(=O)N(C)[C@@H](CC(C)C)C(=O)N[C@@H](C)C(=O)N[C@H](C)C(=O)N(C)[C@@H](CC(C)C)C(=O)N(C)[C@@H](CC(C)C)C(=O)N(C)[C@@H](C(C)C)C(=O)N1C` [PSC-833] as the molecule, how does the “reversal of resistance to AZD1152 HQPA” value (SW620^ABCB1/3 cells [4]; 1 μM PSC-833 for 2 hours prior to AZD1152 HQPA) read?
Answer: effective in reversing the resistance

Question: What does the source list for `CC(=O)O[C@H]1C(=O)[C@@]2(C)[C@H]([C@H](OC(=O)c3ccccc3)[C@]3(O)C[C@H](OC(=O)[C@H](O)[C@@H](NC(=O)c4ccccc4)c4ccccc4)C(C)=C1C3(C)C)[C@]1(OC(C)=O)CO[C@@H]1C[C@@H]2O` [paclitaxel]?
Answer: relative sensitivity (SW620^ABCB1/3): relatively insensitive; relative sensitivity (HCT-15): relatively insensitive; relative sensitivity (AsPC1): not AsPC1 were relatively insensitive
